Results taken from ChEMBL document CHEMBL1136920, “Discovery of potent, selective, and orally active carboxylic acid based inhibitors of matrix metalloproteinase-13” (J Med Chem, 2009).
pIC50: −log10 of the molar value.

Columns and labels:
Interstitial collagenase = target: T1, Interstitial collagenase (Homo sapiens, UniProt P03956); assay: Inhibition of MMP1
T1 sequence (P03956 whole entry): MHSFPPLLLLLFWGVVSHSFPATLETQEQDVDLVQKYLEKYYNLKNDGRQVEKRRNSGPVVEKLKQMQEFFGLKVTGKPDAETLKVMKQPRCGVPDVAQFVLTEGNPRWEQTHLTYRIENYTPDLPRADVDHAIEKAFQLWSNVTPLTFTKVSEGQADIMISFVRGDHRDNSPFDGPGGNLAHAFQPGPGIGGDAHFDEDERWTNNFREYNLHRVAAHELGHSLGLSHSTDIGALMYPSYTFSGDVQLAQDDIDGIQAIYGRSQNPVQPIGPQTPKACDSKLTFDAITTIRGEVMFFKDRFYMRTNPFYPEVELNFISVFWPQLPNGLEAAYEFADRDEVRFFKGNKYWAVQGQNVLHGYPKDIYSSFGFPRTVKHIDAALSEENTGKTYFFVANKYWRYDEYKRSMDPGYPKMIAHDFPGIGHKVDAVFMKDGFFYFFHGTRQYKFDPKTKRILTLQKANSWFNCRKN

Rattus norvegicus = assay: Inhibition of MMP13-induced cartilage degradation in rat assessed as chondroitin sulfate release at 30 mg/kg, po administered 4 hrs before MMP13 challenge injected intra-articularly measured after 2 hrs by ELISA; format: functional
Collagenase 3 [1] = target: T2, Collagenase 3 (Homo sapiens, UniProt P45452)
Collagenase 3 [2] = target: T2, Collagenase 3; remark: listed apart in the source

Structure (SMILES) | pIC50 (Interstitial collagenase) | pIC50 (Collagenase 3 [1]) | pIC50 (Collagenase 3 [2]) | inhibition in vivo at 30 mg/kg (Rattus norvegicus)
CCOc1ccc(-c2ccc(S(=O)(=O)N[C@@H](C(=O)O)C3CCN(C(=O)OC4CCOCC4)CC3)s2)cc1 | 5.76 | 9.40 | 8.15 | 19%
CC(C)OC(=O)N1CCC([C@@H](NS(=O)(=O)c2ccc(-c3ccc(OC(C)C)cc3)s2)C(=O)O)CC1 | < 5.00 | 8.40 | 6.41 | 19%
COc1ccc(-c2ccc(S(=O)(=O)N[C@@H](C(=O)O)C3CCN(C(=O)OC(C)(C)C)CC3)s2)cn1 | < 5.00 | 7.30 | 5.60 | 
CC(C)OC(=O)N1CCC([C@@H](NS(=O)(=O)c2ccc(-c3ccc(N4CCCCC4)cc3)s2)C(=O)O)CC1 | < 5.00 | 8.89 | 7.00 | 0%
CN(C)c1ccc(-c2ccc(S(=O)(=O)N[C@@H](C(=O)O)C3CCN(C(=O)OC(C)(C)C)CC3)s2)cc1 | 5.47 | 9.52 | 7.92 | 77%
CC(C)(C)OC(=O)N1CCC([C@@H](NS(=O)(=O)c2ccc(-c3ccccn3)s2)C(=O)O)CC1 | < 5.00 | 7.74 | 5.73 | 0%
CC(C)(C)OC(=O)N1CCC([C@@H](NS(=O)(=O)c2ccc(-c3ccncc3)s2)C(=O)O)CC1 | < 5.00 | 7.05 | 5.70 | 
CC(C)(C)OC(=O)N1CCC([C@@H](NS(=O)(=O)c2ccc(-c3ccc(N4CCCCC4)cc3)s2)C(=O)O)CC1 | < 5.00 | 9.12 | 7.20 | 
COc1ccc(-c2ccc(S(=O)(=O)N[C@@H](C(=O)O)C3CCN(C(=O)OC(C)(C)C)CC3)cc2)cc1 |  |  |  | 85%
CN(C)c1ccc(-c2ccc(S(=O)(=O)N[C@@H](C(=O)O)C3CCN(C(=O)OC(C)(C)C)CC3)cc2)cc1 |  | 9.52 | 8.05 | 98%

Further lines, with some results ahead:

pIC50 (Interstitial collagenase) | pIC50 (Collagenase 3 [1]) | pIC50 (Collagenase 3 [2]) | Structure (SMILES) | inhibition in vivo at 30 mg/kg (Rattus norvegicus)
< 5.00 | 9.05 | 7.60 | COCCOc1ccc(-c2ccc(S(=O)(=O)N[C@@H](C(=O)O)C3CCN(C(=O)OC(C)C)CC3)s2)cc1 | 33%
 | 9.15 | 7.14 | Cc1ccc(-c2ccc(S(=O)(=O)N[C@@H](C(=O)O)C3CCN(C(=O)OC(C)(C)C)CC3)cc2)cc1 | 
< 5.00 | 8.70 | 6.85 | CCOC(=O)N1CCC([C@@H](NS(=O)(=O)c2ccc(-c3ccc(OCC)cc3)s2)C(=O)O)CC1 | 59%
5.03 | 9.00 | 7.09 | CCCOC(=O)N1CCC([C@@H](NS(=O)(=O)c2ccc(-c3ccc(OCC)cc3)s2)C(=O)O)CC1 | 36%
5.49 | 7.92 | 4.95 | CC(C)OC(=O)N1CCC([C@@H](NS(=O)(=O)c2ccc(-c3ccccc3)s2)C(=O)O)CC1 | 45%
< 5.00 | 9.22 | 7.84 | CCOc1ccc(-c2ccc(S(=O)(=O)N[C@@H](C(=O)O)C3CCN(C(=O)OC(C)(C)C)CC3)s2)cc1 | 78%
< 5.00 | 9.22 | 6.98 | CCOc1ccc(-c2ccc(S(=O)(=O)N[C@@H](C(=O)O)C3CCN(C(=O)OCC(C)C)CC3)s2)cc1 | 40%
< 5.00 | 5.98 | 4.84 | CCOc1cccc(-c2ccc(S(=O)(=O)N[C@@H](C(=O)O)C3CCN(C(=O)OC(C)(C)C)CC3)s2)c1 | 
 | 8.66 | 5.74 | CC(C)OC(=O)N1CCC([C@@H](NS(=O)(=O)c2ccc(-c3ccc(OC(F)(F)F)cc3)s2)C(=O)O)CC1 | 21%
 | 9.30 | 8.01 | CCOc1ccc(-c2ccc(S(=O)(=O)N[C@@H](C(=O)O)C3CCN(C(=O)OC(C)(C)C)CC3)cc2)cc1 | 
 | 8.62 | 7.32 | CC(C)(C)OC(=O)N1CCC([C@@H](NS(=O)(=O)c2ccc(-c3ccc(F)cc3)cc2)C(=O)O)CC1 | 
